In publication PMC5734605 (Journal of Medicinal Chemistry, 2017):

Target: TbNMT (Trypanosoma brucei brucei, UniProt Q388H8)
Sequence (Q388H8 1-446): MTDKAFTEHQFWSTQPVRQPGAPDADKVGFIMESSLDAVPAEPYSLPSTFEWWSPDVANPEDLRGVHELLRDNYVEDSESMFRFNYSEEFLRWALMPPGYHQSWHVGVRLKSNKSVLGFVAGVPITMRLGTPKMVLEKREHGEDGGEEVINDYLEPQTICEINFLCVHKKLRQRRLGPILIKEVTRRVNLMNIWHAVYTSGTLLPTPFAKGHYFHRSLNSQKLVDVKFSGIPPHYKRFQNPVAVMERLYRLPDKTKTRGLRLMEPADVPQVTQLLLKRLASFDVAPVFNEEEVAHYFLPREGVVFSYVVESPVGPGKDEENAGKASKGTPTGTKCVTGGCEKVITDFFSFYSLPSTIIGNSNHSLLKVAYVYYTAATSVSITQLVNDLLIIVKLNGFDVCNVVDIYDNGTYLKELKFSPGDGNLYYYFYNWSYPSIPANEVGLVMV

| Molecule | activity against TbNMT (in words) |
| --- | --- |
| Cc1nn(C)c(C)c1COc1cccc(-c2cccc(C3CCNCC3)c2)c1 [Compound 17, 4-(3′-((1,3,5-Trimethyl-1H-pyrazol-4-yl)methoxy)-[1,1′-biphenyl]-3-yl)piperidine] | completely inactive |
| 3-((2,6-Dichloro-4-(3-(piperidin-4-yl)propyl)phenoxy)methyl)-2-methylpyridine [Compound 70] | no in vitro activity |
